Legend:
H9c2 = assay: protection of cardiomyocytes from stress damage, SAR follow-up, cell-based, panel, H9c2 and HL-1, H2O2, 2-deoxyglucose, ATP luminescence (AID 651642)
HL-1 = assay: as above
[1] = H9c2/HL-1 cardiomyocyte 2-deoxyglucose damage, mean of runs, with 2-deoxyglucose, mean IC50 across panel
[2] = H9c2/HL-1 cardiomyocyte 2-deoxyglucose damage, run 1, with 2-deoxyglucose
[3] = H9c2/HL-1 cardiomyocyte 2-deoxyglucose damage, run 2, with 2-deoxyglucose
[4] = H9c2/HL-1 cardiomyocyte 2-deoxyglucose damage, run 3, with 2-deoxyglucose
[5] = H9c2/HL-1 cardiomyocyte 2-deoxyglucose damage, run 4, with 2-deoxyglucose
[6] = H9c2/HL-1 cardiomyocyte H2O2 oxidative damage, run 1, with H2O2
[7] = H9c2/HL-1 cardiomyocyte H2O2 oxidative damage, run 2, with H2O2
[8] = H9c2/HL-1 cardiomyocyte H2O2 oxidative damage, run 3, with H2O2
[9] = H9c2/HL-1 cardiomyocyte H2O2 oxidative damage, run 4, with H2O2
[10] = H9c2/HL-1 cardiomyocyte H2O2 oxidative damage, mean of runs, with H2O2, mean IC50 across panel

SMILES	IC50 (H9c2; [1])	IC50 (H9c2; [2])	IC50 (H9c2; [3])	IC50 (H9c2; [4])	IC50 (H9c2; [5])	IC50 (H9c2; [6])	IC50 (H9c2; [7])	IC50 (H9c2; [8])	IC50 (H9c2; [9])	IC50 (HL-1; [1])	IC50 (HL-1; [2])	IC50 (HL-1; [3])	IC50 (HL-1; [4])	IC50 (HL-1; [5])	IC50 (HL-1; [10])	IC50 (HL-1; [6])	IC50 (HL-1; [7])	IC50 (HL-1; [8])	IC50 (HL-1; [9])	IC50 (H9c2; [10])
COc1ccc(NC(=O)CNC(=O)c2cc(-c3cc(OC)c(OC)c(OC)c3)nc3ccccc23)cc1	12.8 µM	13.8 µM	15.2 µM	10.4 µM	12 µM	3.97 µM	4.53 µM	> 79 µM	> 79 µM	6.65 µM	4.04 µM	4.29 µM	8.55 µM	9.7 µM	7.15 µM	5.04 µM	8.88 µM	7 µM	7.7 µM	
CCOC(=O)c1cccc(NC(=O)c2cc(-c3cc(OC)c(OC)c(OC)c3)nc3c(Cl)cccc23)c1	> 79 µM	> 79 µM	> 79 µM	> 79 µM	> 79 µM	> 79 µM	30.3 µM	> 79 µM	> 79 µM	> 79 µM	> 79 µM	> 79 µM	> 79 µM	> 79 µM		> 79 µM	11.1 µM	> 79 µM	> 79 µM	
CCOC(=O)c1ccc(NC(=O)c2cc(-c3cc(OC)c(OC)c(OC)c3)nc3ccccc23)cc1	> 79 µM	> 79 µM	> 79 µM	> 79 µM	> 79 µM	> 79 µM	21.5 µM	> 79 µM	> 79 µM	> 79 µM	> 79 µM	> 79 µM	> 79 µM	> 79 µM	> 79 µM	> 79 µM	> 79 µM	> 79 µM	> 79 µM	
COc1ccc2c(c1OC)C(=O)N1c3ccccc3C(=O)N(Cc3cccc(Br)c3)C21 (centres undefined)	> 79 µM	> 79 µM	> 79 µM	> 79 µM	> 79 µM	2.22 µM	3.79 µM	> 79 µM	> 79 µM	7.49 µM	5.07 µM	5.69 µM	7.9 µM	11.3 µM	> 79 µM	> 79 µM	> 79 µM	> 79 µM	> 79 µM	
COc1cc(-c2cc(C(=O)Nc3cccc(C(C)=O)c3)c3cc(C)ccc3n2)cc(OC)c1OC	> 79 µM	> 79 µM	> 79 µM	> 79 µM	> 79 µM	4.03 µM	8.34 µM	3.55 µM	4.29 µM		4.82 µM	5.03 µM	> 79 µM	> 79 µM	4.11 µM	4.85 µM	5.7 µM	2.78 µM	3.12 µM	5.05 µM
COc1ccc2c(c1OC)C(=O)N1c3ccccc3C(=O)N(Cc3c(Cl)cccc3Cl)C21 (centres undefined)	> 79 µM	> 79 µM	> 79 µM	> 79 µM	> 79 µM	3.42 µM	3.73 µM	> 79 µM	> 79 µM		6.31 µM	6.5 µM	> 79 µM	> 79 µM	> 79 µM	> 79 µM	> 79 µM	> 79 µM	> 79 µM	
COc1cc(-c2cc(C(=O)NCC(=O)Nc3cccc(C(C)=O)c3)c3cc(F)ccc3n2)cc(OC)c1OC	6.15 µM	7.04 µM	8.51 µM	4.17 µM	4.87 µM	1.53 µM	1.98 µM	0.789 µM	0.865 µM	6.37 µM	3.22 µM	3.87 µM	8.99 µM	9.39 µM	6.46 µM	5.91 µM	5.98 µM	5.45 µM	8.51 µM	1.29 µM
COc1cc(-c2cc(C(=O)Nc3cccc(C(=O)NCc4ccccc4)c3)c3ccccc3n2)cc(OC)c1OC	3.38 µM	3.81 µM	4.57 µM	2.32 µM	2.81 µM	1.54 µM	1.62 µM	0.678 µM	0.686 µM	1.36 µM	0.74 µM	0.813 µM	1.85 µM	2.05 µM	3.33 µM	1.7 µM	2.25 µM	2.4 µM	6.96 µM	1.13 µM
CCOC(=O)c1ccccc1NC(=O)c1cc(-c2cc(OC)c(OC)c(OC)c2)nc2ccccc12	> 79 µM	> 79 µM	> 79 µM	> 79 µM	> 79 µM	4.3 µM	4.52 µM	> 79 µM	> 79 µM		2.72 µM	3 µM	> 79 µM	> 79 µM		> 79 µM	> 79 µM	> 79 µM	6.51 µM	
